# PubChem BioAssay AID270 (DTP/NCI, 2004)
# Where “and” joins values, the source holds several entries; their conditions need not be identical. Equal values may be shown once. Results filed as inconclusive are left out. *1 amine or outer side, *2 acyl side, *3 side chain or, on linkers, in order; H or OH if unused. Where a SMILES comes first, the peptide text is derived from it. Bridges are numbered along the chain shown (N, C = ends). Roman numbers before positions name the chains, in order. [ ]: non-standard residue; d: D form. Actinocin(1to9) = Cc1c2oc3c(C)ccc(C(=O)[*:2])c3nc-2c(C(=O)[*:1])c(N)c1=O; X1 = O=C1CC(C(=O)[*:2])N([*:1])C1; NMeV = CN[CH](C(=O)O)C(C)C; Sar = CNCC(=O)O
# System: BDF1 mice, s.c. Lewis lung carcinoma, T/C %
# Experiment: NCI In Vivo Anticancer Drug Screen. Data for tumor model Lewis Lung Carcinoma (subcutaneous) in B6D2F1 (BDF1) mice
# Summary of the method: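 Tumor-bearing mice were treated with test compound, and either survival or tumor size was recorded. Values are the treated-group measurement divided by that of the vehicle-treated control group.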
# [1] = endpoint: mean tumor weight, dose: 12.5 mg/kg/injection, schedule: Q01DX011 (ip), vehicle: saline, higher = larger tumour
# [2] = endpoint: mean tumor weight, dose: 25.0 mg/kg/injection, schedule: Q01DX011 (ip), vehicle: saline, higher = larger tumour
# [3] = endpoint: mean tumor weight, dose: 50.0 mg/kg/injection, schedule: Q01DX011 (ip), vehicle: saline, higher = larger tumour
# [4] = endpoint: mean tumor weight, dose: 15.0 mg/kg/injection, schedule: Q01DX011 (ip), vehicle: other, higher = larger tumour
structure (smiles),measurement,setting,value
C=C(C)C(=O)O[C@H]1[C@H]2[C@H](OC(=O)[C@H]2C)[C@H](O)[C@@H](C)[C@@H]2C=CC(=O)[C@]21C,T/C,"endpoint: median survival time, dose: 15.0 mg/kg/injection, schedule: Q01DX009 (ip), vehicle: saline, higher = longer survival",113 % of control
same,T/C,"endpoint: median survival time, dose: 30.0 mg/kg/injection, schedule: Q01DX009 (ip), vehicle: saline, higher = longer survival",104 % of control
"Cc1c2oc3c(C)ccc(C(=O)NC4C(=O)NC(C(C)C)C(=O)N5CCCC5C(=O)N(C)CC(=O)N(C)C(C(C)C)C(=O)OC4C)c3nc-2c(C(=O)NC2C(=O)NC(C(C)C)C(=O)N3CC(=O)CC3C(=O)N(C)CC(=O)N(C)C(C(C)C)C(=O)OC2C)c(N)c1=O (stereo not given) (I: TV[X1][Sar][NMeV] / II: TVP[Sar][NMeV]; ester I:1-I:C, II:1-II:C; linker I:N-II:N via Actinocin(1to9); configuration not given here)",T/C,"endpoint: median survival time, dose: 3.1 micrograms/kg/injection, schedule: Q01DX009 (ip), vehicle: water, higher = longer survival",112 % of control
same,T/C,"endpoint: median survival time, dose: 6.2 micrograms/kg/injection, schedule: Q01DX009 (ip), vehicle: water, higher = longer survival",111 % of control
same,T/C,"endpoint: median survival time, dose: 9.4 micrograms/kg/injection, schedule: Q04DX003 (ip), vehicle: water, higher = longer survival",108 % of control
same,T/C,"endpoint: median survival time, dose: 12.5 micrograms/kg/injection, schedule: Q01DX009 (ip), vehicle: water, higher = longer survival",87 % of control
same,T/C,"endpoint: median survival time, dose: 18.8 micrograms/kg/injection, schedule: Q04DX003 (ip), vehicle: water, higher = longer survival",109 % of control
same,T/C,"endpoint: median survival time, dose: 37.5 micrograms/kg/injection, schedule: Q04DX003 (ip), vehicle: water, higher = longer survival",108 % of control
CC[C@H](c1ccc(O)cc1)[C@@H](CC)c1ccc(O)cc1,T/C,[1],92 % of control
same,T/C,[2],82 % of control
same,T/C,[3],47 % of control
same,T/C,"endpoint: mean tumor weight, dose: 100.0 mg/kg/injection, schedule: Q01DX011 (ip), vehicle: saline, higher = larger tumour",16 % of control
CCn1cnc2c(=S)nc(N)[nH]c21,T/C,"endpoint: mean tumor weight, dose: 3.8 mg/kg/injection, schedule: Q01DX011 (ip), vehicle: other, higher = larger tumour",81 % of control
same,T/C,"endpoint: mean tumor weight, dose: 7.5 mg/kg/injection, schedule: Q01DX011 (ip), vehicle: other, higher = larger tumour",63 % of control
same,T/C,[4],17 % of control
COc1cc(NS(C)(=O)=O)ccc1Nc1c2ccccc2nc2c(C)cccc12,T/C,"endpoint: median survival time, dose: 1.25 mg/kg/injection, schedule: Q01DX009 (ip), vehicle: Klucel (hydroxypropylcellulose) (HPC), higher = longer survival",103 % of control
same,T/C,"endpoint: median survival time, dose: 5.0 mg/kg/injection, schedule: Q01DX009 (ip), vehicle: Klucel (hydroxypropylcellulose) (HPC), higher = longer survival",121 % of control
C[n+]1ccc(Nc2ccc(NC(=O)c3ccc(Nc4cc[n+](C)c5ccc(N)cc45)cc3)cc2)cc1,T/C,"endpoint: median survival time, dose: 1.0 mg/kg/injection, schedule: Q01DX009 (ip), vehicle: Klucel (hydroxypropylcellulose) (HPC), higher = longer survival",167 % of control
same,T/C,"endpoint: median survival time, dose: 8.0 mg/kg/injection, schedule: Q01DX009 (ip), vehicle: Klucel (hydroxypropylcellulose) (HPC), higher = longer survival",244 % of control
Nc1nc(SCc2ccccc2)c2ncn(C3CCCC3)c2n1,T/C,"endpoint: mean tumor weight, dose: 75.0 mg/kg/injection, schedule: Q01DX011 (ip), vehicle: other, higher = larger tumour",115 % of control
same,T/C,"endpoint: mean tumor weight, dose: 150.0 mg/kg/injection, schedule: Q01DX011 (ip), vehicle: other, higher = larger tumour",81 % of control
same,T/C,"endpoint: mean tumor weight, dose: 300.0 mg/kg/injection, schedule: Q01DX011 (ip), vehicle: other, higher = larger tumour",54 % of control
same,T/C,"endpoint: mean tumor weight, dose: 600.0 mg/kg/injection, schedule: Q01DX011 (ip), vehicle: other, higher = larger tumour",47 % of control and 65 % of control
same,T/C,"endpoint: mean tumor weight, dose: 750.0 mg/kg/injection, schedule: Q01DX011 (ip), vehicle: other, higher = larger tumour",52 % of control
C1CC[N-]CC1.C1CC[N-]CC1.C1CC[N-]CC1.C1CC[N-]CC1.[Cl][Co][Cl],T/C,[4],63 % of control
same,T/C,"endpoint: mean tumor weight, dose: 30.0 mg/kg/injection, schedule: Q01DX011 (ip), vehicle: other, higher = larger tumour",68 % of control
same,T/C,"endpoint: mean tumor weight, dose: 60.0 mg/kg/injection, schedule: Q01DX011 (ip), vehicle: other, higher = larger tumour",56 % of control
same,T/C,"endpoint: median survival time, dose: 2.5 mg/kg/injection, schedule: Q01DX009 (ip), vehicle: saline, higher = longer survival",94 % of control
same,T/C,"endpoint: median survival time, dose: 10.0 mg/kg/injection, schedule: Q01DX009 (ip), vehicle: saline, higher = longer survival",105 % of control
same,T/C,"endpoint: median survival time, dose: 20.0 mg/kg/injection, schedule: Q01DX009 (ip), vehicle: saline, higher = longer survival",95 % of control
same,T/C,"endpoint: median survival time, dose: 40.0 mg/kg/injection, schedule: Q01DX009 (ip), vehicle: saline, higher = longer survival",93 % of control
O=c1[nH]cnc2n[nH]nc12,T/C,"endpoint: mean tumor weight, dose: 49.0 mg/kg/injection, schedule: Q01DX011 (ip), vehicle: other, higher = larger tumour",76 % of control
same,T/C,"endpoint: mean tumor weight, dose: 98.0 mg/kg/injection, schedule: Q01DX011 (ip), vehicle: other, higher = larger tumour",64 % of control
same,T/C,"endpoint: mean tumor weight, dose: 147.0 mg/kg/injection, schedule: Q01DX011 (ip), vehicle: other, higher = larger tumour",55 % of control
same,T/C,"endpoint: mean tumor weight, dose: 220.0 mg/kg/injection, schedule: Q01DX011 (ip), vehicle: other, higher = larger tumour",67 % of control
O=NN(CCCl)C(=O)Nc1ncc([N+](=O)[O-])s1,T/C,"endpoint: median survival time, dose: 154.0 mg/kg/injection, schedule: Q01DX001 (ip), vehicle: other, higher = longer survival",112 % of control
CC1OC(Oc2c(-c3cc(O)c(O)c(O)c3)oc3cc(O)cc(O)c3c2=O)C(O)C(O)C1O (stereo not given),T/C,"endpoint: mean tumor weight, dose: 100.0 mg/kg/injection, schedule: Q01DX011 (ip), vehicle: carboxymethylcellulose (CMC), higher = larger tumour",59 % of control
same,T/C,"endpoint: mean tumor weight, dose: 200.0 mg/kg/injection, schedule: Q01DX011 (ip), vehicle: carboxymethylcellulose (CMC), higher = larger tumour",49 % of control
same,T/C,"endpoint: mean tumor weight, dose: 400.0 mg/kg/injection, schedule: Q01DX011 (ip), vehicle: carboxymethylcellulose (CMC), higher = larger tumour",50 % of control
CC(=O)Nc1ccc2nc3ccc(NC(C)=O)cc3[n+](-c3ccccc3)c2c1,T/C,[1],61 % of control
same,T/C,[2],79 % of control
same,T/C,[3],59 % of control
O=C(N/N=C/c1ccc(O)cc1O)c1cccnc1,T/C,"endpoint: median survival time, dose: 6.25 mg/kg/injection, schedule: Q01DX009 (ip), vehicle: olive oil, sesame oil, peanut oil, higher = longer survival",91 % of control
same,T/C,"endpoint: median survival time, dose: 25.0 mg/kg/injection, schedule: Q01DX009 (ip), vehicle: olive oil, sesame oil, peanut oil, higher = longer survival",101 % of control
O=NN(CCF)C(=O)NC1CCCCC1,T/C,"endpoint: median survival time, dose: 5.0 mg/kg/injection, schedule: Q01DX001 (ip), vehicle: Klucel (hydroxypropylcellulose) (HPC), higher = longer survival",101 % of control (2×) and 119 % of control
same,T/C,"endpoint: median survival time, dose: 5.1 mg/kg/injection, schedule: Q01DX001 (ip), vehicle: other, higher = longer survival",96 % of control
same,T/C,"endpoint: median survival time, dose: 10.0 mg/kg/injection, schedule: Q01DX001 (ip), vehicle: Klucel (hydroxypropylcellulose) (HPC), higher = longer survival",90 % of control and 116 % of control and 119 % of control
same,T/C,"endpoint: median survival time, dose: 10.2 mg/kg/injection, schedule: Q01DX001 (ip), vehicle: other, higher = longer survival",105 % of control
same,T/C,"endpoint: median survival time, dose: 20.0 mg/kg/injection, schedule: Q01DX001 (ip), vehicle: Klucel (hydroxypropylcellulose) (HPC), higher = longer survival",101 % of control and 109 % of control and 119 % of control
same,T/C,"endpoint: median survival time, dose: 20.4 mg/kg/injection, schedule: Q01DX001 (ip), vehicle: other, higher = longer survival",121 % of control
same,T/C,"endpoint: median survival time, dose: 40.0 mg/kg/injection, schedule: Q01DX001 (ip), vehicle: Klucel (hydroxypropylcellulose) (HPC), higher = longer survival",182 % of control
CCCCn1ccnc1C,T/C,"endpoint: median survival time, dose: 1.56 mg/kg/injection, schedule: Q01DX009 (ip), vehicle: saline, higher = longer survival",112 % of control
same,T/C,"endpoint: median survival time, dose: 3.13 mg/kg/injection, schedule: Q01DX009 (ip), vehicle: saline, higher = longer survival",99 % of control
same,T/C,"endpoint: median survival time, dose: 12.5 mg/kg/injection, schedule: Q01DX009 (ip), vehicle: saline, higher = longer survival",99 % of control
same,T/C,"endpoint: median survival time, dose: 25.0 mg/kg/injection, schedule: Q01DX009 (ip), vehicle: saline, higher = longer survival",119 % of control
same,T/C,"endpoint: median survival time, dose: 50.0 mg/kg/injection, schedule: Q01DX009 (ip), vehicle: saline, higher = longer survival",98 % of control
NC(=S)N/N=C/c1cc(-c2cccc(N)c2)ccn1,T/C,"endpoint: median survival time, dose: 6.25 mg/kg/injection, schedule: Q01DX009 (ip), vehicle: saline with Tween-80, higher = longer survival",106 % of control
same,T/C,"endpoint: median survival time, dose: 12.5 mg/kg/injection, schedule: Q01DX009 (ip), vehicle: saline with Tween-80, higher = longer survival",102 % of control and 106 % of control
same,T/C,"endpoint: median survival time, dose: 25.0 mg/kg/injection, schedule: Q01DX009 (ip), vehicle: saline with Tween-80, higher = longer survival",117 % of control and 119 % of control
same,T/C,"endpoint: median survival time, dose: 50.0 mg/kg/injection, schedule: Q01DX009 (ip), vehicle: saline with Tween-80, higher = longer survival",87 % of control and 123 % of control
